# Experimental data as given in patent US7179823B1, “5-membered n-heterocyclic compounds with hypoglycemic and hypolipidemic activity” (Takeda Pharmaceutical Company Limited, priority 1999, dated 2007).
# Read-outs that look alike come from different tables or passages of the source.
# How the values were obtained:
# KKA^y mice = test: Hypoglycemic and hypolipidemic actions in mice; assay type: in vivo; conditions: Mus musculus, po, 96 h, four days; for inhibition in vivo at 0.001 %: 0.001% in powdery diet; for inhibition in vivo at 0.005 %: 0.005% in powdery diet
# Description: Hypoglycemic and Hypolipidemic Actions in Mice
# Test compounds were mixed in a powdery diet (CE-2, Japan Clea) at the concentration of 0.01% (compounds of Examples 12, 30, 89, 186), 0.005% (compounds of Examples 7, 80, 82, 181, 182, 184, 256, 262, 283), 0.001% (compounds of Examples 9, 104, 110, 155, 156, 160, 167, 169, 172, 174, 176, 189), or 0.0003% (compounds of Examples 38, 40, 44), and freely given to KKA^y mice (9 to 12 weeks old, 5 mice in a group), a model of obese and type 2 diabetes mellitus, for four days. During this period, water was given freely. Blood was sampled from orbital venous plexus, and glucose and triglyceride levels in plasma separated from blood were determined enzymatically using L type Wako Glu2 (Wako Pure Chemical Industries, Ltd.) or L type Wako TG•H (Wako Pure Chemical Industries, Ltd.), respectively.
# In the Table, the value of each treatment group is represented as percent reduction compared with the non-treatment group.
# PPARγ-RXRα heterodimer = target: T1, PPARγ-RXRα heterodimer (Homo sapiens, UniProt P37231); test: PPARγ-RXRα heterodimer ligand activity (luciferase reporter, PPARγ:RXRα:4ERPP/CHO-K1 cells); assay type: cell-based; conditions: 48 hours, concentration for 50% of the maximum fold induction
# T1 construct: expressed in transfected cells; host or cells: CHO-K1
# T1 sequence (P37231 1-477 isoform P37231-2): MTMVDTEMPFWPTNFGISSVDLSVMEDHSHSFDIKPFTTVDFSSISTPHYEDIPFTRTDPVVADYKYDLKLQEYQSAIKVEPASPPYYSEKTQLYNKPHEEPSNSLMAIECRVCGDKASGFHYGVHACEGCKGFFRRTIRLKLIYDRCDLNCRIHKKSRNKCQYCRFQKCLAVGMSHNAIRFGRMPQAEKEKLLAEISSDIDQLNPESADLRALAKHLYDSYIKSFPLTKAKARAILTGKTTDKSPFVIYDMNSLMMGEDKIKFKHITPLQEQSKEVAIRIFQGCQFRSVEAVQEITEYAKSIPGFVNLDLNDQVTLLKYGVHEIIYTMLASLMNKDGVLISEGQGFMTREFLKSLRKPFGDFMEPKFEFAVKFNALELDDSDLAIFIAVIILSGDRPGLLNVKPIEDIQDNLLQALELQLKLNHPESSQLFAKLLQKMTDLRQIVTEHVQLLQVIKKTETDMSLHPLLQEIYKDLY
# T1 sequence (P19793 1-462 partner): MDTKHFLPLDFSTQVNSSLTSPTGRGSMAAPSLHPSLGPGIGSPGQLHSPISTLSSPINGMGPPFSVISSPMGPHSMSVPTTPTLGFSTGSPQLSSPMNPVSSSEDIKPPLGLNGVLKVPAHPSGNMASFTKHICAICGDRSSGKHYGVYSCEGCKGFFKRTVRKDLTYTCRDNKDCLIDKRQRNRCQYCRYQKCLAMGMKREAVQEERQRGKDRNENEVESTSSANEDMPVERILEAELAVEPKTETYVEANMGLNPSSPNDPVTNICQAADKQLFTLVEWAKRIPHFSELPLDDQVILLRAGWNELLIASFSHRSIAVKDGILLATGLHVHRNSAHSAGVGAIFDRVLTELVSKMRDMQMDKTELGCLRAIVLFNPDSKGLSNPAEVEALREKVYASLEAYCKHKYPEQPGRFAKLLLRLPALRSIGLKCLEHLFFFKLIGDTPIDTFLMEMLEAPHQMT
# Protocol: (PPARγ-RXRα Heterodimer Ligand Activity)
# A PPARγ:RXRα:4ERPP/CHO-K1 cells obtained in Reference Example 5 described later were cultured in HAM F12 medium (produced by NISSUI SEIYAKU) containing 10% Fetal bovine serum (produced by Life Technologies, Inc., USA) and then inoculated to a 96-well white plate (produced by Corning Costar Corporation, USA) at the density of 2×10^4 cells/well, and cultured in a CO2 gas incubator at 37° C. overnight.
# After washing the 96 well white plate with PBS (Phosphate-buffered saline), 90 μl of HAM F12 medium containing 0.1% fatty acid-free bovine serum albumin (BSA) and 10 μl of test compound were added, which was cultured in a CO2 gas incubator at 37° C. for 48 hours. After removing the medium, 40 μl of PIKKAGENE 7.5 (produced by Wako Pure Chemical Industries, Ltd.) was added. After stirring, the luciferase activity was determined using Lumistar (produced by BMG Labtechnologies GmbH, Germany).
# A fold induction was calculated based on the luciferase activity of each test compound by taking the luciferase activity in the non-treatment group as 1. The values of the test compound concentration and the fold induction were analyzed using PRISM 2.01 (produced by GraphPad Software Inc. USA) to calculate the EC50 values, the effective concentration of a test compound for 50% of the maximum fold induction.
# (Introduction of Human PPARγ- and RXRα-Expressing Plasmid and Reporter Plasmid into CHO-K1 Cell and Establishment of Expressed Cell)
# After a CHO-K1 cell cultured in a 750 ml tissue culture flask (produced by Corning Costar Corporation, USA) containing HAM F12 medium (produced by NISSUI SEIYAKU) supplemented with 10% Fetal Bovine Serum (produced by Life Technologies, Inc., USA) was scraped by treating with 0.5 g/L trypsin-0.2 g/L EDTA (ethylenediaminetetraacetic acid) (produced by Life Technologies, Inc., USA), the cell was washed with PBS (phosphate-buffered saline) (produced by Life Technologies, Inc., USA), centrifuged (1000 rpm, 5 minutes), and then suspended in PBS. Subsequently, a DNA was introduced into the cell under the condition shown below using GENE PULSER (produced by Bio-Rad Laboratories, USA).
# Namely, to a cuvette having a 0.4 cm gap, added were 8×10^6 cells and 10 μg of plasmid pVgRXR2-hPPAR γ obtained in Reference Example 3 and 10 μg of reporter plasmid pGL3-4ERPP-TK neo obtained in Reference Example 4, which was subjected to electroporation at the voltage of 0.25 kV under the capacitance of 960 μF. Subsequently, the cell was transferred into a HAM F12 medium containing 10% Fetal Bovine Serum and cultured for 24 hours and then the cell was scraped again and centrifuged, and then suspended in HAM F12 medium containing 10% Fetal Bovine Serum supplemented with 500 μg/ml of GENETICIN (produced by Life Technologies, Inc., USA) and 250 μg/ml of ZEOCIN (produced by Invitrogen, USA) and diluted to the density of 10^4 cells/ml upon inoculation to a 96-well plate (produced by Corning Costar Corporation, USA), which was cultured in a CO2 gas incubator at 37° C., whereby obtaining a GENETICIN- and ZEOCIN-resistant transformant.
# Subsequently, after the transformant cell line thus obtained was cultured in a 24-well plate (produced by Corning Costar Corporation, USA), selected was a cell line in which the luciferase was expressed and induced, i.e., PPARγ:RXRα:4ERPP/CHO-K1 cell by addition of 10 μM pioglitazone hydrochloride.
# [1] = percent reduction of plasma glucose compared with the non-treatment group, read-out: Hypoglycemic action (%)
# [2] = percent reduction of plasma triglyceride compared with the non-treatment group, read-out: Hypolipidemic action (%)
EC50 (PPARγ-RXRα heterodimer),melting point,SMILES,inhibition in vivo at 0.001 % (KKA^y mice; [1]),inhibition in vivo at 0.001 % (KKA^y mice; [2]),inhibition in vivo at 0.005 % (KKA^y mice; [1]),inhibition in vivo at 0.005 % (KKA^y mice; [2])
3.5 nM,153 to 154 °C,"CCCc1nn(Cc2ccc(OCc3nc(-c4ccccc4)oc3C)cc2)cc1CCC(=O)O [Example 110, 3-[1-[4-(5-methyl-2-phenyl-4-oxazolylmethoxy)benzyl]-3-propyl-1H-pyrazol-4-yl]propionic acid]",50%,70%,–,–
53 nM,126 to 127 °C,"CCOc1nn(Cc2ccc(OCc3cn(-c4ccccn4)nc3C)cc2)cc1CCC(=O)O [Example 256, 3-[3-ethoxy-1-[4-(3-methyl-1-(2-pyridyl)-1H-pyrazol-4-ylmethoxy]benzyl]-1H-pyrazol-4-yl]propionic acid]",–,–,57%,16%
